The source made the active and inactive calls.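 The calls were made as follows: active = share of cells pushed into apoptosis exceeding a set limit, after 48 hr at 25 µM; inactive = the rest.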

For the test, the system named is 2B4 cells apoptosis, DAPI nuclear morphology. Briefly: apoptosis induction in cultured cancer cells, late-stage follow-up, MCL1-BIM inhibitor project, imaging, DAPI fluorescence, 2B4 cells (AID 493059). Particulars: for apoptosis: at 25 µM, active compounds read high.

Take `O=C(NN=Cc1cccc(F)c1)c1cc(-c2ccco2)nc2ccccc12`: the apoptosis was 3% (inactive).

Regarding `C=CCN=c1scc(-c2ccco2)n1/N=C/c1ccc(O)c(O)c1O`, the apoptosis was 98%.

`C=CCn1c(SCC(=O)c2ccc(O)c(O)c2)nnc1-c1cccnc1`: the apoptosis is 3.5% (inactive).

As for `CC(C)n1c(SCC(=O)Nc2nncs2)nnc1-c1ccco1`, the apoptosis was 0% (inactive).

With `Cc1ccc(C(=O)O)cc1-c1ccc(/C=C2\SC(=O)N(CC(=O)Nc3ccc4c(c3)OCO4)C2=O)o1`, the result was inactive.

`O=[N+]([O-])c1cc(CN2CCCC2)c2cccnc2c1O`: the apoptosis was 1.7% (inactive).

`O=C(/C=C/c1ccc(Cl)c([N+](=O)[O-])c1)Nc1ccc(N2CCCC2)cc1`: the result was inactive.

For the molecule `COc1ccc(-n2cccc2/C=C2\C(=N)N3N=C(c4ccco4)SC3=NC2=O)cc1`, the apoptosis was 3.7% (inactive).

As to `COc1ccc(Cc2nnc(NC(=O)Cc3cccs3)s2)cc1OC`, the apoptosis was 0% (inactive).

With `Cc1c(Cl)cccc1NS(=O)(=O)c1ccc2c(c1)C1C=CCC1C(c1ccc(C(=O)O)cc1)N2` (stereo not drawn), the apoptosis is 0% (inactive).

With `c1coc(-c2nc(-c3ccco3)c(-c3ccco3)nc2-c2ccco2)c1`, the apoptosis was 0% (inactive).

In the case of `Cc1cccc(NC(=O)CNC(=O)c2cccc(-n3cccc3)c2)c1C`, the apoptosis was 1.9% (inactive).

As to `O=C(O)COc1ccccc1C(Nc1ccccn1)c1cc(Cl)c2cccnc2c1O` (stereo not drawn), the apoptosis was 5.1% (inactive).

For the molecule `CCc1sc(C(C2C(=O)CC(C)(C)CC2=O)C2C(=O)CC(C)(C)CC2=O)cc1[N+](=O)[O-]`, the apoptosis was 3.5% (inactive).

As to `CCOc1ccc(NC(=O)c2cccc(-n3cccc3)c2)cc1S(=O)(=O)N1CCOCC1`, the apoptosis is 6.1% (inactive).

In the case of `O=C(NN=Cc1ccc(-c2ccc(S(=O)(=O)Nc3ncccn3)cc2)o1)c1cc2ccccc2cc1O`, the apoptosis is 18%.

Regarding `Cc1cc(NC(=O)Cc2cccs2)no1`, the outcome was inactive.

As to `COc1ccc(NC(=O)CN(C)C(=O)c2cc3c(s2)CCC3)cc1`, the apoptosis is 1.8% (inactive).

Regarding `COC(=O)c1ccccc1NCc1cc(=O)oc2cc(O)c(O)cc12`, the apoptosis is 14% (inactive).

For `O=C1COc2ccc(C(=O)COC(=O)/C=C/c3ccc(Br)o3)cc2N1`, the apoptosis was 3.4% (inactive).

In the case of `O=C(Cn1cnc2sc(-c3ccccc3)cc2c1=O)NCc1ccco1`, the apoptosis was 3.6% (inactive).

Regarding `Nc1ccc(C(=O)NN=Cc2cc(N=Nc3cccc4ccccc34)ccc2O)cc1`, the apoptosis was 15%.

On to `c1ccc(CSc2nnc(-c3ccco3)c(-c3ccco3)n2)cc1`, for which the apoptosis is 14% (inactive).

(Values after PubChem BioAssay AID493059 (The Scripps Research Institute Molecular Screening Center, 2011).)
